{"source": "paper PMC10838953", "key": {"PKAC-beta": {"molecular_target": "PKAC-beta (Homo sapiens, UniProt P22694)", "test": "biochemical", "conditions": "read-out: %Ctrl @ 2000nM"}, "p38-delta": {"molecular_target": "p38-delta (Homo sapiens, UniProt O15264)", "test": "biochemical", "conditions": "read-out: %Ctrl @ 2000nM"}, "NEK10": {"molecular_target": "NEK10 (Homo sapiens, UniProt Q6ZWH5)", "test": "biochemical", "conditions": "read-out: %Ctrl @ 2000nM"}, "NEK2": {"molecular_target": "NEK2 (Homo sapiens, UniProt P51955)", "test": "biochemical", "conditions": "read-out: %Ctrl @ 2000nM"}, "EPHA2": {"molecular_target": "EPHA2 (Homo sapiens, UniProt P29317)", "test": "biochemical", "conditions": "read-out: %Ctrl @ 2000nM"}, "IKK-beta": {"molecular_target": "IKK-beta (Homo sapiens, UniProt O14920)", "sequence (O14920 whole entry)": "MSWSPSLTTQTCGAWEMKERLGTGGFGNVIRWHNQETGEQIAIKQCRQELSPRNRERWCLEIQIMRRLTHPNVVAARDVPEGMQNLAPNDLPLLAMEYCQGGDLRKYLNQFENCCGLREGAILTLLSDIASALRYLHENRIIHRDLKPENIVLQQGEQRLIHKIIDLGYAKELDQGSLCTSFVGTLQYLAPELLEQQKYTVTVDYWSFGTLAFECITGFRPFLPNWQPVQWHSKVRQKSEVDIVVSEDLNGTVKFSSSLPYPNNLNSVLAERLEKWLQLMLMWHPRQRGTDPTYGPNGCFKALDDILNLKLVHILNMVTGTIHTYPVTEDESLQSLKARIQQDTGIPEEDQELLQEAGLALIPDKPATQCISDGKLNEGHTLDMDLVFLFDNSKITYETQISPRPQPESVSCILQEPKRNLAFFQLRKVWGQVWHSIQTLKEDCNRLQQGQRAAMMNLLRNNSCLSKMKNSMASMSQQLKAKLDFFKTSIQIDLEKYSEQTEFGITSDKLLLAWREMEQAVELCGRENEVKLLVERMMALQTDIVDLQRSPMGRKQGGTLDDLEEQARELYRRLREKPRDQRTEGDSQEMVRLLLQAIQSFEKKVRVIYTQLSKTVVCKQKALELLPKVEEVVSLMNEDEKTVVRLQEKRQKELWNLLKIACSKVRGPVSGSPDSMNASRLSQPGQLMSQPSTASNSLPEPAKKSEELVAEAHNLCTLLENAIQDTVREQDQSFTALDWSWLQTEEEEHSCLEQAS", "test": "biochemical", "conditions": "read-out: %Ctrl @ 2000nM"}, "caspase-3 in 786-O cells": {"tested_on": "caspase-3 in 786-O cells", "conditions": "72 h, compounds at 20 μM"}, "LRRK2(G2019S)": {"molecular_target": "LRRK2(G2019S) (Homo sapiens, UniProt Q5S007, G2019S)", "test": "biochemical", "conditions": "read-out: %Ctrl @ 2000nM"}, "DAPK3": {"molecular_target": "DAPK3 (Homo sapiens, UniProt O43293)", "test": "biochemical", "conditions": "read-out: %Ctrl @ 2000nM"}, "VRK2": {"molecular_target": "VRK2 (Homo sapiens, UniProt Q86Y07)", "test": "biochemical", "conditions": "read-out: %Ctrl @ 2000nM"}, "PKMYT1": {"molecular_target": "PKMYT1 (Homo sapiens, UniProt Q99640)", "test": "biochemical", "conditions": "read-out: %Ctrl @ 2000nM"}, "DLK": {"molecular_target": "DLK (Homo sapiens, UniProt Q12852)", "sequence (Q12852 whole entry)": "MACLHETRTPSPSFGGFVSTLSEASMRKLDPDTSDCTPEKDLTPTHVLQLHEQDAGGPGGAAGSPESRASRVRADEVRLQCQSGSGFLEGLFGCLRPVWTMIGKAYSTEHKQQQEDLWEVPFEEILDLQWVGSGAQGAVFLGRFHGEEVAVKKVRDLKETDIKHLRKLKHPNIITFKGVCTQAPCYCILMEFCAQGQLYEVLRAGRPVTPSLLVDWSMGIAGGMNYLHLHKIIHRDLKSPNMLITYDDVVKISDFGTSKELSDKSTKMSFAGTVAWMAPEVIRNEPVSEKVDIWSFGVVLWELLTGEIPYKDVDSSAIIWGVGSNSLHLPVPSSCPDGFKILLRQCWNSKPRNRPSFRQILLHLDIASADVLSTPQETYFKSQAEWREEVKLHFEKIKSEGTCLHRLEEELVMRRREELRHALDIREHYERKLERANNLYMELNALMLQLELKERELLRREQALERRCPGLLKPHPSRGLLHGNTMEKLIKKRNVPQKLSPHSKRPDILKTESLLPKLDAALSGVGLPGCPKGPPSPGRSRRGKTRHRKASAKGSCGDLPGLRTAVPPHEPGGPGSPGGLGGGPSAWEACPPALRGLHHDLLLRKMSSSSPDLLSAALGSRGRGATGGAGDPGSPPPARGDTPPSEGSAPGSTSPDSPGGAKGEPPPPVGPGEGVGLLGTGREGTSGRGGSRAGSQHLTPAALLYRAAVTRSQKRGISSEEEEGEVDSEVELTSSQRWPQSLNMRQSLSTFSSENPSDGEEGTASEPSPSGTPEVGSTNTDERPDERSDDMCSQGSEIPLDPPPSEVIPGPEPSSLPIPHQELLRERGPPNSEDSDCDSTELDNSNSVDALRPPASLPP", "test": "biochemical", "conditions": "read-out: %Ctrl @ 2000nM"}, "PIK3CA(C420R)": {"molecular_target": "PIK3CA(C420R) (Homo sapiens, UniProt P42336, C420R)", "test": "biochemical", "conditions": "read-out: %Ctrl @ 2000nM"}, "ROCK2": {"molecular_target": "ROCK2 (Homo sapiens, UniProt O75116)", "test": "biochemical", "conditions": "read-out: %Ctrl @ 2000nM"}, "GCN2(Kin.Dom.2,S808G)": {"molecular_target": "GCN2(Kin.Dom.2,S808G) (Homo sapiens, UniProt Q9P2K8, S808G)", "sequence (Q9P2K8 590-1001 S808G limits assumed)": "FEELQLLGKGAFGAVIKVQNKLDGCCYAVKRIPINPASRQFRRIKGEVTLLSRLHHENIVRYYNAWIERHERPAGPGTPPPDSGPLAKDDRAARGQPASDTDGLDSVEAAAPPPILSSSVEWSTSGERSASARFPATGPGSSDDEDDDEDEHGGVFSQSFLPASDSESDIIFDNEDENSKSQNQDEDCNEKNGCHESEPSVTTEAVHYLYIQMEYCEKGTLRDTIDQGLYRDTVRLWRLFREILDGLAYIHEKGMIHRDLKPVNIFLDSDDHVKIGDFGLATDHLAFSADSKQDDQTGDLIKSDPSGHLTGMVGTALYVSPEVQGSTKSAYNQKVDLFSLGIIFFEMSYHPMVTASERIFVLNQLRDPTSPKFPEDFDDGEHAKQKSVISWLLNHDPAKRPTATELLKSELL", "test": "biochemical", "conditions": "read-out: %Ctrl @ 2000nM"}, "AURKB": {"molecular_target": "AURKB (Homo sapiens, UniProt Q96GD4)", "test": "biochemical", "conditions": "read-out: %Ctrl @ 2000nM"}, "GRK2": {"molecular_target": "GRK2 (Homo sapiens, UniProt P25098)", "test": "biochemical", "conditions": "read-out: %Ctrl @ 2000nM"}, "MKK7": {"molecular_target": "MKK7 (Homo sapiens, UniProt O14733)", "test": "biochemical", "conditions": "read-out: %Ctrl @ 2000nM"}, "HIPK4": {"molecular_target": "HIPK4 (Homo sapiens, UniProt Q8NE63)", "test": "biochemical", "conditions": "read-out: %Ctrl @ 2000nM"}, "CAMKK1": {"molecular_target": "CAMKK1 (Homo sapiens, UniProt Q8N5S9)", "test": "biochemical", "conditions": "read-out: %Ctrl @ 2000nM"}, "ITK": {"molecular_target": "ITK (Homo sapiens, UniProt Q08881)", "test": "biochemical", "conditions": "read-out: %Ctrl @ 2000nM"}, "CSNK1G3": {"molecular_target": "CSNK1G3 (Homo sapiens, UniProt Q9Y6M4)", "sequence (Q9Y6M4 whole entry)": "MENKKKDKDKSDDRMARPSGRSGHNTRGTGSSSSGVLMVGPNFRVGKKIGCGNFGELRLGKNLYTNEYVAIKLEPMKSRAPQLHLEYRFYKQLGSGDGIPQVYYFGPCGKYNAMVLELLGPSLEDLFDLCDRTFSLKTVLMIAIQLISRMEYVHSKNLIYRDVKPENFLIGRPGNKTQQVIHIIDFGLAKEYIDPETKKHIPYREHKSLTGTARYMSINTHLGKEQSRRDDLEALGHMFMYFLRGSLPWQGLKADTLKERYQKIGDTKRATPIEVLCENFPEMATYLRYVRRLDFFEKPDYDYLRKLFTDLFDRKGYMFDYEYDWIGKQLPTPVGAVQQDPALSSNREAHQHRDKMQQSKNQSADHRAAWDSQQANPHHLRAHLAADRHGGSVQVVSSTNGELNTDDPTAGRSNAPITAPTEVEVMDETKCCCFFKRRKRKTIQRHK", "test": "biochemical", "conditions": "read-out: %Ctrl @ 2000nM"}, "MEK2": {"molecular_target": "MEK2 (Homo sapiens, UniProt P36507)", "test": "biochemical", "conditions": "read-out: %Ctrl @ 2000nM"}, "TRPM6": {"molecular_target": "TRPM6 (Homo sapiens, UniProt Q9BX84)", "test": "biochemical", "conditions": "read-out: %Ctrl @ 2000nM"}, "MEK1": {"molecular_target": "MEK1 (Homo sapiens, UniProt Q02750)", "test": "biochemical", "conditions": "read-out: %Ctrl @ 2000nM"}, "BUB1": {"molecular_target": "BUB1 (Homo sapiens, UniProt O43683)", "sequence (O43683 whole entry)": "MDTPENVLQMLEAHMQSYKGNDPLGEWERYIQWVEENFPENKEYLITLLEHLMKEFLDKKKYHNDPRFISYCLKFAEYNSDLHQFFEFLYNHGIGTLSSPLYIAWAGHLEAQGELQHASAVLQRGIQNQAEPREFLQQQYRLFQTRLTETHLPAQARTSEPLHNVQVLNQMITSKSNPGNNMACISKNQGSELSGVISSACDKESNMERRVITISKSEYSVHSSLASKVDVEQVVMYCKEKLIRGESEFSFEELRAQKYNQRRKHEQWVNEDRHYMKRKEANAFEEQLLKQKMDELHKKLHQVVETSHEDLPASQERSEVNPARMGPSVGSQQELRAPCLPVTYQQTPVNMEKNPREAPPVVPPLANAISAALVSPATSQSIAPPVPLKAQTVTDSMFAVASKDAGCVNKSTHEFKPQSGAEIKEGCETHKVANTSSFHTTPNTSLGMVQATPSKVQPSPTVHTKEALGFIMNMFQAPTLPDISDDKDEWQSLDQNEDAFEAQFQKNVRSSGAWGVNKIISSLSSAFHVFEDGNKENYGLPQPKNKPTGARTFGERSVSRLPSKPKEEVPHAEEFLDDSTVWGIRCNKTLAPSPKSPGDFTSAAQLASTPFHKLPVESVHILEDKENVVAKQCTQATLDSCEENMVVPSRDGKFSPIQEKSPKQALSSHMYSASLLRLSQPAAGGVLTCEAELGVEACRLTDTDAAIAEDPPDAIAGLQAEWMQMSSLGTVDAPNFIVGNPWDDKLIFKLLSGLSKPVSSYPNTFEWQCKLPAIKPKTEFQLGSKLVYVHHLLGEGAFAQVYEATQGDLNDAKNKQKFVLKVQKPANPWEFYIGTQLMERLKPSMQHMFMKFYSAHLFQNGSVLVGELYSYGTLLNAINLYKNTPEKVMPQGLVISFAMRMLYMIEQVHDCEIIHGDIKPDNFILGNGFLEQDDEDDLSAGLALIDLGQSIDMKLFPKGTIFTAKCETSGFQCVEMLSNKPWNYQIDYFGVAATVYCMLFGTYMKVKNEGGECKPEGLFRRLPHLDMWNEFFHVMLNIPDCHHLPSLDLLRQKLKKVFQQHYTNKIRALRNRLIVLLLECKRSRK", "test": "biochemical", "conditions": "read-out: %Ctrl @ 2000nM"}, "MARK2": {"molecular_target": "MARK2 (Homo sapiens, UniProt Q7KZI7)", "sequence (Q7KZI7 whole entry)": "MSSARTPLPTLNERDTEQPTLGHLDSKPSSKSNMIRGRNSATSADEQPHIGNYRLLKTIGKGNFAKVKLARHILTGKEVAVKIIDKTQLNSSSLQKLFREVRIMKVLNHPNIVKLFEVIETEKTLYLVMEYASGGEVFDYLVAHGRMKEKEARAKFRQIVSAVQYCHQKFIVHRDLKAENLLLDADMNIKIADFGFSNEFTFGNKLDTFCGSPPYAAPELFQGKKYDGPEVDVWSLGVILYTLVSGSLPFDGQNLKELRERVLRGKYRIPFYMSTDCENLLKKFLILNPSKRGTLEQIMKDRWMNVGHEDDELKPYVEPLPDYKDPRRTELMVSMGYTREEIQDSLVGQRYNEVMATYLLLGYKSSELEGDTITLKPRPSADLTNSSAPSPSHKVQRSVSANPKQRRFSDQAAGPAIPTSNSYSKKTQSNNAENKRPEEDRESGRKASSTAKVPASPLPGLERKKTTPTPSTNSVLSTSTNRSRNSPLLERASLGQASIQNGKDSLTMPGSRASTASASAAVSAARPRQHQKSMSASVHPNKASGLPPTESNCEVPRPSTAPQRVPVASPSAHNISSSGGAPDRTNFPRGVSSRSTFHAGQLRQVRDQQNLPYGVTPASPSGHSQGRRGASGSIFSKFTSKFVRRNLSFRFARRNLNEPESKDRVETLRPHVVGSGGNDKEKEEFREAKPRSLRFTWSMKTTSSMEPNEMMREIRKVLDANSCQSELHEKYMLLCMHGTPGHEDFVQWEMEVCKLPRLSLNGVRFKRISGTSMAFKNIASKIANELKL", "test": "biochemical", "conditions": "read-out: %Ctrl @ 2000nM"}, "ALK(C1156Y)": {"molecular_target": "ALK(C1156Y) (Homo sapiens, UniProt Q9UM73, C1156Y)", "test": "biochemical", "conditions": "read-out: %Ctrl @ 2000nM"}, "NEK1": {"molecular_target": "NEK1 (Homo sapiens, UniProt Q96PY6)", "test": "biochemical", "conditions": "read-out: %Ctrl @ 2000nM"}, "[1]": {"molecular_target": "ABL1(F317L)-phosphorylated (Homo sapiens, UniProt P00519, F317L)", "test": "biochemical", "conditions": "read-out: %Ctrl @ 2000nM"}, "STAT3 (S727)": {"tested_on": "STAT3 (S727)", "conditions": "786-O cells; 48 h"}, "STK39": {"molecular_target": "STK39 (Homo sapiens, UniProt Q9UEW8)", "test": "biochemical", "conditions": "read-out: %Ctrl @ 2000nM"}, "[2]": {"molecular_target": "ABL1(Y253F)-phosphorylated (Homo sapiens, UniProt P00519, Y253F)", "test": "biochemical", "conditions": "read-out: %Ctrl @ 2000nM"}, "DYRK2": {"molecular_target": "DYRK2 (Homo sapiens, UniProt Q92630)", "sequence (Q92630 whole entry)": "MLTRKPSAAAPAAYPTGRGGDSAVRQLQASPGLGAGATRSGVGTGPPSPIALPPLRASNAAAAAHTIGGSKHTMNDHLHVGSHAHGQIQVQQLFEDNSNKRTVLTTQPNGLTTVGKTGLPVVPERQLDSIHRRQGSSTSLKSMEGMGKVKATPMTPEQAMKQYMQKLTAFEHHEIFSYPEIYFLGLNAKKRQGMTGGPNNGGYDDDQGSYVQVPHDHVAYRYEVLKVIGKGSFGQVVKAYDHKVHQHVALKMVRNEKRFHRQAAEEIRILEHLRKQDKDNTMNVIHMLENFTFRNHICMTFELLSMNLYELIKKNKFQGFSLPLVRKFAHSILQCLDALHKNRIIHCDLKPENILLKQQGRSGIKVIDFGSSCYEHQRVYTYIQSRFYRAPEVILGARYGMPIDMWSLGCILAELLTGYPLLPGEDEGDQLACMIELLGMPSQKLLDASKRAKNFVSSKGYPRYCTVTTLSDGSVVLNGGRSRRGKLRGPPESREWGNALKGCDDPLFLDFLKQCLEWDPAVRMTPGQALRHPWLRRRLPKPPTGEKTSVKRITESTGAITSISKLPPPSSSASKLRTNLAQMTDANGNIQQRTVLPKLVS", "test": "biochemical", "conditions": "read-out: %Ctrl @ 2000nM"}, "PCTK1": {"molecular_target": "PCTK1 (Homo sapiens, UniProt Q00536)", "test": "biochemical", "conditions": "read-out: %Ctrl @ 2000nM"}, "[3]": {"molecular_target": "TYK2(JH2domain-pseudokinase) (Homo sapiens, UniProt P29597)", "test": "biochemical", "conditions": "read-out: %Ctrl @ 2000nM"}, "ERBB4": {"molecular_target": "ERBB4 (Homo sapiens, UniProt Q15303)", "test": "biochemical", "conditions": "read-out: %Ctrl @ 2000nM"}, "PIK3CA(E545K)": {"molecular_target": "PIK3CA(E545K) (Homo sapiens, UniProt P42336, E545K)", "test": "biochemical", "conditions": "read-out: %Ctrl @ 2000nM"}, "MINK": {"molecular_target": "MINK (Homo sapiens, UniProt Q8N4C8)", "test": "biochemical", "conditions": "read-out: %Ctrl @ 2000nM"}, "BRSK2": {"molecular_target": "BRSK2 (Homo sapiens, UniProt Q8IWQ3)", "test": "biochemical", "conditions": "read-out: %Ctrl @ 2000nM"}, "ALK(L1196M)": {"molecular_target": "ALK(L1196M) (Homo sapiens, UniProt Q9UM73, L1196M)", "test": "biochemical", "conditions": "read-out: %Ctrl @ 2000nM"}, "FLT3": {"molecular_target": "FLT3 (Homo sapiens, UniProt P36888)", "test": "biochemical", "conditions": "read-out: %Ctrl @ 2000nM"}}, "data": [{"compound": "CC(C)COC(=O)c1[nH]c2ccc(F)cc2c1-c1cn(CC2CCN(CCNS(=O)(=O)c3ccc(CC(C)C)cc3)CC2)nn1", "note": "[AB668, isobutyl 5-fluoro-3-(1-((1-(2-((4-isobutylphenyl)sulfonamido)ethyl)piperidin-4-yl)methyl)-1H-1,2,3-triazol-4-yl)-1H-indole-2-carboxylate]", "values": [{"measurement": "remaining activity at 2 µM", "setting": "PKAC-beta", "value": 78, "unit": "%"}, {"measurement": "remaining activity at 2 µM", "setting": "p38-delta", "value": 96, "unit": "%"}, {"measurement": "remaining activity at 2 µM", "setting": "NEK10", "value": 80, "unit": "%"}, {"measurement": "remaining activity at 2 µM", "setting": "NEK2", "value": 90, "unit": "%"}, {"measurement": "remaining activity at 2 µM", "setting": "EPHA2", "value": 92, "unit": "%"}, {"measurement": "remaining activity at 2 µM", "setting": "IKK-beta", "value": 91, "unit": "%"}, {"measurement": "caspase-3 activation", "setting": "caspase-3 in 786-O cells", "value": "induced caspase-3 activation"}, {"measurement": "remaining activity at 2 µM", "setting": "LRRK2(G2019S)", "value": 86, "unit": "%"}, {"measurement": "remaining activity at 2 µM", "setting": "DAPK3", "value": 100, "unit": "%"}, {"measurement": "remaining activity at 2 µM", "setting": "VRK2", "value": 78, "unit": "%"}, {"measurement": "remaining activity at 2 µM", "setting": "PKMYT1", "value": 70, "unit": "%"}, {"measurement": "remaining activity at 2 µM", "setting": "DLK", "value": 83, "unit": "%"}, {"measurement": "remaining activity at 2 µM", "setting": "PIK3CA(C420R)", "value": 100, "unit": "%"}, {"measurement": "remaining activity at 2 µM", "setting": "ROCK2", "value": 83, "unit": "%"}, {"measurement": "remaining activity at 2 µM", "setting": "GCN2(Kin.Dom.2,S808G)", "value": 80, "unit": "%"}, {"measurement": "remaining activity at 2 µM", "setting": "AURKB", "value": 99, "unit": "%"}, {"measurement": "remaining activity at 2 µM", "setting": "GRK2", "value": 100, "unit": "%"}, {"measurement": "remaining activity at 2 µM", "setting": "MKK7", "value": 82, "unit": "%"}, {"measurement": "remaining activity at 2 µM", "setting": "HIPK4", "value": 87, "unit": "%"}, {"measurement": "remaining activity at 2 µM", "setting": "CAMKK1", "value": 88, "unit": "%"}, {"measurement": "remaining activity at 2 µM", "setting": "ITK", "value": 93, "unit": "%"}, {"measurement": "remaining activity at 2 µM", "setting": "CSNK1G3", "value": 67, "unit": "%"}, {"measurement": "remaining activity at 2 µM", "setting": "MEK2", "value": 96, "unit": "%"}, {"measurement": "remaining activity at 2 µM", "setting": "TRPM6", "value": 81, "unit": "%"}, {"measurement": "remaining activity at 2 µM", "setting": "MEK1", "value": 97, "unit": "%"}, {"measurement": "remaining activity at 2 µM", "setting": "BUB1", "value": 94, "unit": "%"}, {"measurement": "remaining activity at 2 µM", "setting": "MARK2", "value": 81, "unit": "%"}, {"measurement": "remaining activity at 2 µM", "setting": "ALK(C1156Y)", "value": 81, "unit": "%"}, {"measurement": "remaining activity at 2 µM", "setting": "NEK1", "value": 73, "unit": "%"}, {"measurement": "remaining activity at 2 µM", "setting": "[1]", "value": 78, "unit": "%"}, {"measurement": "activated forms of STAT3", "setting": "STAT3 (S727)", "value": "dose-dependent inhibition"}, {"measurement": "remaining activity at 2 µM", "setting": "STK39", "value": 90, "unit": "%"}, {"measurement": "remaining activity at 2 µM", "setting": "[2]", "value": 95, "unit": "%"}, {"measurement": "remaining activity at 2 µM", "setting": "DYRK2", "value": 76, "unit": "%"}, {"measurement": "remaining activity at 2 µM", "setting": "PCTK1", "value": 94, "unit": "%"}, {"measurement": "remaining activity at 2 µM", "setting": "[3]", "value": 100, "unit": "%"}, {"measurement": "remaining activity at 2 µM", "setting": "ERBB4", "value": 97, "unit": "%"}, {"measurement": "remaining activity at 2 µM", "setting": "PIK3CA(E545K)", "value": 88, "unit": "%"}, {"measurement": "remaining activity at 2 µM", "setting": "MINK", "value": 100, "unit": "%"}, {"measurement": "remaining activity at 2 µM", "setting": "BRSK2", "value": 79, "unit": "%"}, {"measurement": "remaining activity at 2 µM", "setting": "ALK(L1196M)", "value": 85, "unit": "%"}, {"measurement": "remaining activity at 2 µM", "setting": "FLT3", "value": 87, "unit": "%"}]}]}
